# Measured values as given in patent publication US10513511B2, “Aqueous suspension formulation comprising 4-(4-(4-(((3R,5R)-5-((1H-1,2,4-triazol-1-yl)methyl)-5-(2,4-difluoro-phenyl)tetrahydrofuran-3-yl)methoxy)-3-methylphenyl) or a pharmaceutically acceptable salt thereof” (PULMOCIDE LIMITED, priority 2015, dated 2019).
# How the values were obtained:
# [1] = tested on: Aspergillus fumigatus (ATCC 13073); assay: In vivo anti-fungal activity, therapeutic treatment of infected immunocompromised neutropenic mice; parameters: species or system A/J mice; conditions: for CFU in lung, % Inhibition of response / DNA in Lung / DNA in Lung, % Inhibition of response / GM in Serum / GM in serum, % Inhibition of response / CFU in lung: therapeutic; for CFU in lung: mean ± SEM, n = 6
# Description: (§1) Aspergillus fumigatus (ATCC 13073 [strain: NIH 5233], American Type Culture Collection, Manassas, Va., USA) was grown on Malt agar (Nissui Pharmaceutical, Tokyo, Japan) plates for 6-7 days at RT (24±1° C.). Spores were aseptically dislodged from the agar plates and suspended in sterile distilled water with 0.05% Tween 80 and 0.1% agar. On the day of infection, spore counts were assessed by haemocytometer and the inoculum was adjusted to obtain a concentration of 1.67×10^8 spores mL^−1 of physiological saline. […] On day 0, animals were infected with the spore suspension (30 μL intra-nasally).
# (§2) Test substances were administered intra-nasally (35 μL of a suspension (0.0032-10.0 mg/mL of drug substance in physiological saline) once daily, on days 1, 2 and 3 only (thereby representing a therapeutic treatment regimen). For extended prophylactic treatment, test compounds (35 μL of a suspension of 0.0032 or 0.016 mg/mL in physiological saline) were administered intra-nasally once daily for seven days. One group was dosed 30 min before infection on day 0 but not subsequently, while a second group was further dosed on days 1, 2 and 3 after infection. The effects of these treatment paradigms were compared with those obtained when treatment was restricted in other groups to either one day or 30 min before inoculation and then on days 1, 2 and 3 post infection in both cases. In a final group, dosing was limited still further with animals dosed twice, one day and 30 min before infection only.
# (§3) Animal body weights were monitored daily and at 6 hr after the last dose of drug was administered on day 3, the animals were anesthetised, the tracheas cannulated and BALF blood and lung tissue were collected. The levels of IL-6 and TNFα in serum were determined using Quantikine® mouse IL-6 or TNF-α ELISA kit (R&D systems, Inc., Minneapolis, Minn., USA) respectively. Aspergillus GM in serum was determination using Platelia GM-EIA kits (Bio-Rad Laboratories, Redmond, Wash., USA). Cut-off index (COI) was calculated by the formula: Cut-off index=OD in sample/OD in cut-off control provided in kit. For tissue fungal load assays, 100 mg of lung tissue was removed aseptically and homogenized in 0.2 mL of 0.1% agar in sterile distilled water. Serially diluted lung homogenates were plated on Malt agar plates (50 μL/plate), and incubated at 24±1° C. for 72 to 96 h. The colonies of A. fumigatus on each plate were counted and the fungal titre presented herein as CFUs per gram of lung tissue.
# For determination of Aspergillus fumigatus DNA content, DNA was extracted from either infected lungs or Aspergillus fumigatus with the Isoplant (Nippon Gene) according to the manufacture's instruction. The tissues cut to <3 mm in any length were mixed with solution I (extraction buffer: 300 μL). Solution II (lysis buffer; benzyl chloride: 150 μL) was then added to the mixtures followed by mixing with a vortex mixer for 5 seconds. After incubation at 50° C. for 15 min, solution III (sodium acetate, pH5.2: 150 μL) was added the mixtures agitated vigorously for 1-3 seconds and then incubated on ice for 15 min. After the incubation, the mixtures were centrifuged at 12,000 g for 15 min at 4° C. DNA in the upper aq phases of the supernatants was precipitated with 100% ethanol (×2.5 vol), washed with 70% ethanol and dissolved in 5-10 μL of TE buffer.
# DNA amplification was performed with Premix Ex Taq™ (Takara Bio) in the 96-well optical reaction plate. Aspergillus fumigatus 18S rRNA gene fragments were amplified with the primer pair; 5′-GGCCCTTAA ATAGCCCGGT-3′ (SEQ ID No. 1) and 5′-[…]-3′ (SEQ ID No. 2), and hybridization probe; 5′-FAM-AGCCAGCGGCCCGCAAATG-TAMRA-3′ (SEQ ID No. 3). Real time PCR was performed in a (25 μL contained 50 ng of mouse DNA with 200 nM of probe) under the following conditions: initial incubation for 2 min at 50° C., initial denaturation for 10 min at 95° C., followed by 55 cycles of 15 seconds at 95° C. and 1 min at 65° C. […]
# [2] = tested on: Aspergillus fumigatus (ATCC 13073); assay: In vivo anti-fungal activity, extended prophylactic dosing in infected immunocompromised neutropenic mice; parameters: species or system A/J mice; conditions: for CFU in lung: mean ± SEM, N = 5
# Description: as §1
# as §2, with “For extended prophylactic treatment, test compounds (35 μL of a suspension of 0.0032 or 0.016 mg/mL in physiological saline) were administered intra-nasally once daily for seven days.” left out
# as §3
# IL-6 = assay: Serum IL-6 in Aspergillus fumigatus infected, immunocompromised, neutropenic mice; type: in vivo, A/J mice; conditions: for IL-6 in serum, % Inhibition / Conc of Biomarkers, IL-6 in serum: therapeutic; for Conc of Biomarkers, IL-6 in serum: mean ± SEM, N = 6
# Description: as §1, §2, §3
# [3] = Therapeutic Regimen, intranasal
# [4] = Days dosed −1 to + 3, 0.64 μg/mL
# [5] = Days dosed −1 to + 3, 3.2 μg/mL
# [6] = Days dosed −7 to + 3, 0.64 μg/mL
# [7] = Days dosed −7 to + 3, 3.2 μg/mL
smiles,measurement,setting,value
"Cc1cc(N2CCN(c3ccc(C(=O)N[C@H]4CCCC[C@@H]4O)cc3)CC2)ccc1OC[C@@H]1CO[C@@](Cn2cncn2)(c2ccc(F)cc2F)C1 [Compound (Ia), 4-(4-(4-(((3R,5R)-5-((1H-1,2,4-triazol-1-yl)methyl)-5-(2,4-difluorophenyl)tetrahydrofuran-3-yl)methoxy)-3-methylphenyl)piperazin-1-yl)-N-((1S,2S)-2-hydroxycyclohexyl) benzamide]","CFU in lung, % Inhibition of response",[1]; Drug Conc 3.2 μg/mL intranasal,19%
same,DNA in Lung,[1]; Drug Conc 3.2 μg/mL intranasal,41.7 ± 29.0 pg/50 ng mouse DNA
same,"DNA in Lung, % Inhibition of response",[1]; Drug Conc 3.2 μg/mL intranasal,41%
same,GM in Serum,[1]; Drug Conc 3.2 μg/mL intranasal,2.85 ± 2.76 COI
same,"GM in serum, % Inhibition of response",[1]; Drug Conc 3.2 μg/mL intranasal,16%
same,CFU in lung,[1]; Drug Conc 3.2 μg/mL intranasal,25.8 ± 20.8 /mg of lung
same,"CFU in lung, % Inhibition of response",[1]; Drug Conc 16 μg/mL intranasal,24%
same,DNA in Lung,[1]; Drug Conc 16 μg/mL intranasal,56.1 ± 53.4 pg/50 ng mouse DNA
same,"DNA in Lung, % Inhibition of response",[1]; Drug Conc 16 μg/mL intranasal,21%
same,GM in Serum,[1]; Drug Conc 16 μg/mL intranasal,3.01 ± 2.14 COI
same,"GM in serum, % Inhibition of response",[1]; Drug Conc 16 μg/mL intranasal,11%
same,CFU in lung,[1]; Drug Conc 16 μg/mL intranasal,24.2 ± 15.8 /mg of lung
same,"CFU in lung, % Inhibition of response",[1]; Drug Conc 80 μg/mL intranasal,71%
same,DNA in Lung,[1]; Drug Conc 80 μg/mL intranasal,4.10 ± 4.60 pg/50 ng mouse DNA
same,"DNA in Lung, % Inhibition of response",[1]; Drug Conc 80 μg/mL intranasal,94%
same,GM in Serum,[1]; Drug Conc 80 μg/mL intranasal,0.53 ± 0.38 COI
same,"GM in serum, % Inhibition of response",[1]; Drug Conc 80 μg/mL intranasal,84%
same,CFU in lung,[1]; Drug Conc 80 μg/mL intranasal,9.30 ± 5.20 /mg of lung
same,"ID50 Values, A. fumigatus DNA in Lung",[1]; [3],50 mg/L
same,"ID50 Values, GM in serum",[1]; [3],47 mg/L
same,"ID50 Values, Lung Fungal Load",[1]; [3],51 mg/L
same,"CFU in lung, % Inhibition","[2]; Days dosed −1, 0, 3.2 μg/mL",−222%
same,GM in BALF,"[2]; Days dosed −1, 0, 3.2 μg/mL",4.5 ± 0.63 COI
same,"GM in BALF, % Inhibition","[2]; Days dosed −1, 0, 3.2 μg/mL",−10%
same,GM in Serum,"[2]; Days dosed −1, 0, 3.2 μg/mL",4.7 ± 0.65 COI
same,"GM in Serum, % Inhibition","[2]; Days dosed −1, 0, 3.2 μg/mL",−21%
same,CFU in lung,"[2]; Days dosed −1, 0, 3.2 μg/mL intranasal",20.4 ± 15.7 /mg of lung
same,"CFU in lung, % Inhibition",[2]; [4],57%
same,GM in BALF,[2]; [4],3.9 ± 0.59 COI
same,"GM in BALF, % Inhibition",[2]; [4],5%
same,GM in Serum,[2]; [4],3.6 ± 0.52 COI
same,"GM in Serum, % Inhibition",[2]; [4],8%
same,CFU in lung,"[2]; Days dosed −1 to + 3, 0.64 μg/mL intranasal",4.0 ± 5.2 /mg of lung
same,"CFU in lung, % Inhibition",[2]; [5],89%
same,GM in BALF,[2]; [5],3.4 ± 0.46 COI
same,"GM in BALF, % Inhibition",[2]; [5],17%
same,GM in Serum,[2]; [5],2.8 ± 0.24 COI
same,"GM in Serum, % Inhibition",[2]; [5],28%
same,CFU in lung,"[2]; Days dosed −1 to + 3, 3.2 μg/mL intranasal",1.0 ± 1.4 /mg of lung
same,"CFU in lung, % Inhibition","[2]; Days dosed −7 to 0, 3.2 μg/mL",90%
same,GM in BALF,"[2]; Days dosed −7 to 0, 3.2 μg/mL",2.9 ± 0.97 COI
same,"GM in BALF, % Inhibition","[2]; Days dosed −7 to 0, 3.2 μg/mL",29%
same,GM in Serum,"[2]; Days dosed −7 to 0, 3.2 μg/mL",2.6 ± 0.48 COI
same,"GM in Serum, % Inhibition","[2]; Days dosed −7 to 0, 3.2 μg/mL",33%
same,CFU in lung,"[2]; Days dosed −7 to 0, 3.2 μg/mL intranasal",0.9 ± 1.1 /mg of lung
same,"CFU in lung, % Inhibition",[2]; [6],78%
same,GM in BALF,[2]; [6],3.1 ± 0.85 COI
same,"GM in BALF, % Inhibition",[2]; [6],24%
same,GM in Serum,[2]; [6],2.6 ± 0.82 COI
same,"GM in Serum, % Inhibition",[2]; [6],33%
same,CFU in lung,"[2]; Days dosed −7 to + 3, 0.64 μg/mL intranasal",2.0 ± 3.6 /mg of lung
same,"CFU in lung, % Inhibition",[2]; [7],99.6%
same,GM in BALF,[2]; [7],1.5 ± 0.59 COI
same,"GM in BALF, % Inhibition",[2]; [7],63%
same,GM in Serum,[2]; [7],1.5 ± 0.85 COI
same,"GM in Serum, % Inhibition",[2]; [7],62%
same,CFU in lung,"[2]; Days dosed −7 to + 3, 3.2 μg/mL intranasal",0.04 ± 0.08 /mg of lung
same,"IL-6 in serum, % Inhibition",IL-6; Drug Conc 3.2 μg/mL,17%
same,"Conc of Biomarkers, IL-6 in serum",IL-6; Drug Conc 3.2 μg/mL,247 ± 185 pg/mL
same,"IL-6 in serum, % Inhibition",IL-6; Drug Conc 16 μg/mL,12%
same,"Conc of Biomarkers, IL-6 in serum",IL-6; Drug Conc 16 μg/mL,262 ± 185 pg/mL
same,"IL-6 in serum, % Inhibition",IL-6; Drug Conc 80 μg/mL,78%
same,"Conc of Biomarkers, IL-6 in serum",IL-6; Drug Conc 80 μg/mL,66.5 ± 32.9 pg/mL
same,"ID50 Values for biomarkers indicated, IL-6","IL-6; serum, title: Therapeutic Treatment",50 mg/L
"CC[C@@H]([C@H](C)O)n1ncn(-c2ccc(N3CCN(c4ccc(OC[C@@H]5CO[C@@](Cn6cncn6)(c6ccc(F)cc6F)C5)cc4)CC3)cc2)c1=O [Posaconazole, reference compound]","ID50 Values, GM in serum",[1]; [3],590 mg/L
same,"ID50 Values, Lung Fungal Load",[1]; [3],390 mg/L
